Laboratory results taken from US11192907B2, “Aminopeptidase A inhibitors and pharmaceutical compositions comprising the same” (QUANTUM GENOMICS, priority 2018, dated 2021).

Key:
brain APA [1] = conditions: central infusions, cited from earlier work
recombinant mouse APA = molecular target: T1, recombinant mouse APA (Mus musculus, UniProt P16406); test: Measurement of APA activity in vitro (GluβNa hydrolysis, microplate); format: biochemical; conditions: 200 μM Glu-βNa, pH 7.4, 37° C., read-out: In vitro inhibition of aminopeptidase A, IC50 classification
T1 sequence (P16406 1-945): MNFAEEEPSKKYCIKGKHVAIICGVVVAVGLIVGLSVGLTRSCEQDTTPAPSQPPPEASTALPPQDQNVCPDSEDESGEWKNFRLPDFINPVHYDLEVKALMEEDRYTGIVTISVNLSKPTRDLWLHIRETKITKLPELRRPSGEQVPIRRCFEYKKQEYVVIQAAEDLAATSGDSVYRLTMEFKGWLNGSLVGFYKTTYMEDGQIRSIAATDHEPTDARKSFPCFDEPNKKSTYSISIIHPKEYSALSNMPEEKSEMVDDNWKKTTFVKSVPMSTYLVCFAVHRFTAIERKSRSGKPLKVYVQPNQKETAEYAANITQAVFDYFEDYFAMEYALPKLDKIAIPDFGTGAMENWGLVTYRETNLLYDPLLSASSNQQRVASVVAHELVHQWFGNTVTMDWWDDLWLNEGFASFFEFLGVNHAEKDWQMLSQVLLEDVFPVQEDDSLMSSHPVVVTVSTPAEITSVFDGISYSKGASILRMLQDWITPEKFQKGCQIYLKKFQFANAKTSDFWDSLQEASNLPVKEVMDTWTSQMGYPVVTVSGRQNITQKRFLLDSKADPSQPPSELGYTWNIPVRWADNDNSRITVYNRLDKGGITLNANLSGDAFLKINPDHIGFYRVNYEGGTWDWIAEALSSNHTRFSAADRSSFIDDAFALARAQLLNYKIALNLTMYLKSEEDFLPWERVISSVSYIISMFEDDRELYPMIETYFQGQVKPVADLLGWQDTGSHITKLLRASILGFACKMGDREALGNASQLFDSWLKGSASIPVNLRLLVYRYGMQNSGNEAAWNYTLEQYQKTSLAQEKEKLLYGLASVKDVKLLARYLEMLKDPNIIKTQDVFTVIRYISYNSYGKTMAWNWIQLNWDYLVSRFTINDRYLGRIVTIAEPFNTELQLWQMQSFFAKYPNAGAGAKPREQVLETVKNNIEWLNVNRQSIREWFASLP
Description: In vitro, in the presence of calcium ions, APA hydrolyses a synthetic substrate α-L-glutamyl-β-naphthylamide (GluβNa) to glutamate and β-naphthylamine (βNa). A diazotation reaction in acidic medium makes it possible to reveal the β-naphthylamine by formation of a violet-coloured complex: spectrophotometric measurement then makes it possible to know the amount of complex formed and, by reference to a standard curve produced with increasing concentrations of β-naphthylamine, to deduce the enzymatic activity of the sample.
The reaction takes place at pH 7.4 in 50 mM tris-HCl buffer, in the presence of calcium (4 mM CaCl2)); recombinant mouse APA is incubated at 37° C. in the presence of the substrate (200 μM Glu-βNa) and in the presence or absence of various concentrations of the inhibitor to be tested, in a final volume of 100 μL. The reaction is stopped by adding 10 μL of 3N HCl. A standard curve of β-naphthylamine was prepared in parallel by diazotizing increasing concentrations (up to 0.2 mM) of 2-naphthylamine in 0.1 N HCl.
The following are added to each well: 25 μL of sodium nitrite (NaNO2) (mix, wait 5 minutes at room temperature), 50 μL of ammonium sulfamate (mix, wait 5 minutes at room temperature), then add 25 μL of N-(1-naphthyl) ethylenediamine dihydrochloride (mix, wait for stabilization of the violet colour for approximately 30 minutes at 37° C.).
The absorbance is then measured at 540 nm.

brain APA [2] = molecular target: T2, brain APA (Mus musculus, UniProt P16406); test: Measurement of brain APA activity ex vivo after i.v. administration; format: in vivo, mice; conditions: for brain APA activity: 10 min
T2 construct: from tissue; host or cells: mouse brain homogenate
T2 sequence (P16406 1-945): T1 sequence (P16406 1-945)
Description: Brain APA activity was determined as described above.
In vivo, in mice (male, 18-20 g Charles River), Examples 22 and 52 were administered i.v. (5 mg/kg and 4 mg/kg respectively, in a volume of 200 μL). For each condition, five mice were used. Mice were sacrified 10, 30, 60, 120 and 180 min after the injection. The brains were immediately removed and homogenized by sonication in 10 vol of ice-cold 50 mM Tris-HCl buffer (pH 7.4). APA enzymatic activity was measured on brain homogenates. For this purpose, aliquots of the tissue homogenate (16 μL) were incubated for 30 min at 37° C. with 200 μM of GluβNA, 4 mM CaCl2, and 1 μM bestatin inhibitor, with or without 5 μM EC33, in a total volume of 100 μL of 50 mM Tris-HCl buffer (pH 7.4). Then the assay was pursued as described above.

[3] = acute oral, 15 to 150 mg/kg, conscious hypertensive DOCA-salt rats and SHR rats; cited from earlier work

| SMILES | IC50 (recombinant mouse APA) | other results |
| --- | --- | --- |
| N[C@H](CS)CCS(=O)(=O)O [EC33, (S)-3 amino-4-mercapto-butylsulfonic acid] | 300 to 10000 nM | effect on BP (brain APA [1]; several experimental models of hypertension): lower BP; effect on brain APA activity (brain APA [1]): inhibit brain APA activity |
| NC(CCC(=O)O)P(=O)(O)CCc1ccccc1 (centres unmarked) [Example 22, 4-amino-4-[hydroxy(2-phenylethyl)phosphoryl]butanoic acid] | < 30 nM | brain APA activity maximally decreased by (brain APA [2]; 5 mg/kg i.v., conscious mice, from 10 min until 60 min): 47%; brain APA activity (brain APA [2]; 5 mg/kg i.v., mice): 37.5±3.3 nmol of GluNA hydrolyzed per mg of protein per h; brain APA activity time course (brain APA [2]; 5 mg/kg i.v., mice, after 120 min): return to basal values; ability to cross the blood brain barrier and enter the brain (brain APA [2]; 5 mg/kg i.v., mice, by inhibition of brain APA activity): cross the blood brain barrier (BBB) and to enter the brain |
| NC(CCC(=O)O)P(=O)(O)CCc1ccccc1-c1ccccc1 (centres unmarked) [Example 39, 4-amino-4-[(2-{[1,1′-biphenyl]-2-yl}ethyl)(hydroxy)phosphoryl]butanoic acid] | 30 to 300 nM |  |
| NC(CCC(=O)O)P(=O)(O)CCc1cccc(Cl)c1Cl (centres unmarked) [Example 40, 4-amino-4-{[2-(2,3-dichlorophenyl)ethyl](hydroxy)phosphoryl}butanoic acid] | < 30 nM |  |
| COc1c(Cl)cccc1CCP(=O)(O)C(N)CCC(=O)O (centres unmarked) [Example 41, 4-amino-4-{[2-(3-chloro-2-methoxyphenyl)ethyl](hydroxy)phosphoryl}butanoic acid] | 30 to 300 nM |  |
| Cn1cc(CCP(=O)(O)C(N)CCC(=O)O)c2ccccc21 (centres unmarked) [Example 42, 3-carboxy-1-{hydroxy[2-(1-methyl-1H-indol-3-yl)ethyl]phosphoryl}propan-1-aminium chloride] | 30 to 300 nM |  |
| NC(CCC(=O)O)P(=O)(O)CCc1ccccc1OC1CCCCC1 (centres unmarked) [Example 43, 3-carboxy-1-({2-[2-(cyclohexyloxy)phenyl]ethyl}(hydroxy)phosphoryl) propan-1-aminium chloride] | < 30 nM |  |
| COCCOc1ccccc1CCP(=O)(O)C(N)CCC(=O)O (centres unmarked) [Example 44, 3-carboxy-1-[hydroxy({2-[2-(2-methoxyethoxy)phenyl]ethyl})phosphoryl]propan-1-aminium chloride] | < 30 nM |  |
| COc1cc(F)ccc1CCP(=O)(O)C(N)CCC(=O)O (centres unmarked) [Example 46, 4-amino-4-{[2-(4-fluoro-2-methoxyphenyl)ethyl](hydroxy)phosphoryl}butanoic acid] | < 30 nM |  |
| NC(CCC(=O)O)P(=O)(O)CCn1ncc2ccccc21 (centres unmarked) [Example 47, 4-amino-4-{hydroxy[2-(1H-indazol-1-yl)ethyl]phosphoryl}butanoic acid] | 300 to 10000 nM |  |
| NC(CCC(=O)O)P(=O)(O)CCc1ccccc1OCc1ccccc1 (centres unmarked) [Example 48, 1-({2-[2-(benzyloxy)phenyl]ethyl}(hydroxy)phosphoryl)-3-carboxy propan-1-aminium chloride] | < 30 nM |  |
| NC(CCCC(=O)O)P(=O)(O)CCc1ccccc1 (centres unmarked) [Example 49, 5-amino-5-[hydroxy(2-phenylethyl)phosphoryl]pentanoic acid] | 300 to 10000 nM |  |
| N[C@@H](CCC(=O)O)P(=O)(O)CCc1ccccc1 [Example 50, (1R)-3-carboxy-1-[hydroxy(2-phenylethyl)phosphoryl]propan-1-aminium chloride] | < 30 nM |  |
| N[C@H](CCC(=O)O)P(=O)(O)CCc1ccccc1 [Example 51, (1S)-3-carboxy-1-[hydroxy(2-phenylethyl)phosphoryl]propan-1-aminium chloride] | 300 to 10000 nM |  |
| COc1ccccc1CCP(=O)(O)[C@@H](N)CCC(=O)O.Cl [Example 52, (1R)-3-carboxy-1-{hydroxy[2-(2-methoxyphenyl)ethyl]phosphoryl} propan-1-aminium chloride] | < 30 nM | brain APA activity (brain APA [2]; 4 mg/kg i.v., mice): 12.0±4.0 nmol of GluNA hydrolyzed per mg of protein per h; ability to cross the BBB and enter the brain (brain APA [2]; 4 mg/kg i.v., mice, by inhibition of brain APA activity): cross the BBB and to enter the brain; inhibition at 4 mg/kg (brain APA [2]; mouse, iv, 4 mg/kg i.v., mice, 120 min after the injection, read-out: brain APA activity inhibited by): 35% |
| N[C@@H](CCC(=O)O)P(=O)(O)CCc1ccccc1OC1CCCCC1 [Example 53, (4R)-4-amino-4-({2-[2-(cyclohexyloxy)phenyl]ethyl} (hydroxy)phosphoryl) butanoic acid] | < 30 nM |  |
| COc1ccccc1CP(=O)(O)C(N)CCS(=O)(=O)O (centres unmarked) [Example 60, 3-amino-3-{hydroxy[(2-methoxyphenyl)methyl]phosphoryl}propane-1-sulfonic acid] | 30 to 300 nM |  |
| NC(CCS(=O)(=O)O)P(=O)(O)CCc1ccccc1 (centres unmarked) [Example 61, 3-amino-3-[hydroxy(2-phenylethyl)phosphoryl]propane-1-sulfonic acid] | 300 to 10000 nM |  |
| COc1ccccc1CCP(=O)(O)C(N)CCS(=O)(=O)O (centres unmarked) [Example 62, 3-amino-3-{hydroxy[2-(2-methoxyphenyl)ethyl]phosphoryl}propane-1-sulfonic acid] | 30 to 300 nM |  |
| NC(CCS(=O)(=O)O)P(=O)(O)CCCc1ccccc1 (centres unmarked) [Example 63, 3-amino-3-[hydroxy(3-phenylpropyl)phosphoryl]propane-1-sulfonic acid] | 300 to 10000 nM |  |
| NC(CCS(=O)(=O)O)P(=O)(O)Cc1cccc(-c2ccccc2)c1 (centres unmarked) [Example 64, 3-amino-3-[({[1,1′-biphenyl]-3-yl}methyl)(hydroxy)phosphoryl]propane-1-sulfonic acid] | 300 to 10000 nM |  |
| NC(CCS(=O)(=O)O)P(=O)(O)Cc1cc(-c2ccccc2)no1 (centres unmarked) [Example 65, 3-amino-3-{hydroxy[(3-phenyl-1,2-oxazol-5-yl)methyl]phosphoryl}propane-1-sulfonic acid] | 300 to 10000 nM |  |
| NC(CCS(=O)(=O)O)P(=O)(O)Cc1cc(-c2ccccc2)on1 (centres unmarked) [Example 66, 3-amino-3-{hydroxy[(5-phenyl-1,2-oxazol-3-yl)methyl]phosphoryl}propane-1-sulfonic acid] | 300 to 10000 nM |  |
| NC(CCCS(=O)(=O)O)P(=O)(O)CCc1ccccc1 (centres unmarked) [Example 67, 4-amino-4-[hydroxy(2-phenylethyl)phosphoryl]butane-1-sulfonic acid] | 30 to 300 nM |  |
| NC(CCP(=O)(O)O)P(=O)(O)CCc1ccccc1 (centres unmarked) [Example 68, {3-amino-3-[hydroxy(2-phenylethyl)phosphoryl]propyl}phosphonic acid] | 300 to 10000 nM |  |
| N[C@@H](CCS(=O)(=O)O)CSSC[C@@H](N)CCS(=O)(=O)O [RB150] |  | effect on BP [3]: dose-dependent decrease in BP |
